Assay results: patent publication US5089513A, “5-lipoxygenase inhibitory thiazoles” (ICI Pharma, priority 1988, dated 1992)

Experiments:
5-LO [1] = target: T1, 5-LO (Homo sapiens, UniProt P09917); experiment: Test b) heparinised human blood challenged with A23187, LTB4 radioimmunoassay; assay type: cell-based
T1 construct: incubating a test compound with heparinised human blood; endogenous in cells; host or cells: leukocytes in heparinised human whole blood
T1 sequence (P09917 1-674): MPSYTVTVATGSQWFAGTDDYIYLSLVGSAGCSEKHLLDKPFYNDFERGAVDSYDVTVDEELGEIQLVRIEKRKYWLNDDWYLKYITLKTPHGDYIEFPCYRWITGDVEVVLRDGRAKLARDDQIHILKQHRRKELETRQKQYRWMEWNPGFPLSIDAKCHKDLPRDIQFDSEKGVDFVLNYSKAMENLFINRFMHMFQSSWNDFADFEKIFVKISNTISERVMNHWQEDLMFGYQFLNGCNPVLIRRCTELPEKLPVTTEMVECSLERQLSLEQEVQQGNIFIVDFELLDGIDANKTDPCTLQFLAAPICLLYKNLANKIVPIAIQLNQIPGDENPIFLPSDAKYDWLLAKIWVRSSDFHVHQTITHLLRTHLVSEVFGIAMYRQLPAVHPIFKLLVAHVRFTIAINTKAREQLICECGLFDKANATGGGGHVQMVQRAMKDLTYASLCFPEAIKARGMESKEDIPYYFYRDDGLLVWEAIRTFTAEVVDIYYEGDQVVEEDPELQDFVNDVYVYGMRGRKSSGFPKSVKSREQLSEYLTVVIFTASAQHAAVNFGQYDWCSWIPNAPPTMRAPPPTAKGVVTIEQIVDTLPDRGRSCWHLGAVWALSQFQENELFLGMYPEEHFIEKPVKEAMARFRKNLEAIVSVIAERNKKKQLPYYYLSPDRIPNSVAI
Experimental: b) An in vitro assay system involving incubating a test compound with heparinised human blood, prior to challenge with the calcium ionophore A23187 and then indirectly measuring the inhibitory effects on 5-LO by assaying the amount of LTB4 using the specific radioimmunoassay described by Carey and Forder (F. Carey and R. A. Forder, Brit. […] This test provides an indication of the effects of a test compound against 5-LO and also cyclooxygenase in the presence of blood cells and proteins. It permits the selectivity of the inhibitory effect on 5-LO or cyclooxygenase to be assessed.

5-LO [2] = target: T2, 5-LO (Rattus norvegicus, UniProt P12527); experiment: Test c) ex vivo assay, blood collected after oral administration, A23187 challenge, LTB4 radioimmunoassay; assay type: in vivo
T2 construct: blood collection, heparinisation, challenge with A23187 and radioimmunoassay of LTB4 and TxB2; endogenous in cells
T2 sequence (P12527 1-673): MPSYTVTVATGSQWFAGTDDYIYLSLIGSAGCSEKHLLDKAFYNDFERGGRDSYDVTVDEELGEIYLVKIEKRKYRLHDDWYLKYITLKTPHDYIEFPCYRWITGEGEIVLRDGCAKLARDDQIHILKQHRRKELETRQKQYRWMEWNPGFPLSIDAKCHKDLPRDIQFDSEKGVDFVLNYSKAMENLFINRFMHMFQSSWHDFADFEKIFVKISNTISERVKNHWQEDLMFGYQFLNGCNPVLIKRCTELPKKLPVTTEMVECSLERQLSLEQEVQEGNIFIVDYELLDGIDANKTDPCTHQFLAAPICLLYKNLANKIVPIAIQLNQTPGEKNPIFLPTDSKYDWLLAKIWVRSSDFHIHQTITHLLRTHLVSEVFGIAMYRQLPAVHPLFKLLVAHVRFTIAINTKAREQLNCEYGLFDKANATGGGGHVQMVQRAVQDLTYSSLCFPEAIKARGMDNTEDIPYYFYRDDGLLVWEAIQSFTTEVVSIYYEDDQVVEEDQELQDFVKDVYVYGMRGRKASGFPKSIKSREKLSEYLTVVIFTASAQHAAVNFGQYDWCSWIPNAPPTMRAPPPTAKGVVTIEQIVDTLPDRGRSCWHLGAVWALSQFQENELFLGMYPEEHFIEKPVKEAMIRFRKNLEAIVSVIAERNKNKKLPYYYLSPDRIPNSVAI

5-LO [3] = target: T3, 5-LO (Cavia porcellus, UniProt A0A286X958); experiment: Test a) in vitro spectrophotometric cell free enzyme assay using 5-LO isolated from guinea pig neutrophils; assay type: biochemical
T3 construct: 5-LO isolated from guinea pig neutrophils; endogenous in cells; host or cells: guinea pig neutrophils (enzyme isolated, soluble, cell-free)
T3 sequence (A0A286X958 1-674): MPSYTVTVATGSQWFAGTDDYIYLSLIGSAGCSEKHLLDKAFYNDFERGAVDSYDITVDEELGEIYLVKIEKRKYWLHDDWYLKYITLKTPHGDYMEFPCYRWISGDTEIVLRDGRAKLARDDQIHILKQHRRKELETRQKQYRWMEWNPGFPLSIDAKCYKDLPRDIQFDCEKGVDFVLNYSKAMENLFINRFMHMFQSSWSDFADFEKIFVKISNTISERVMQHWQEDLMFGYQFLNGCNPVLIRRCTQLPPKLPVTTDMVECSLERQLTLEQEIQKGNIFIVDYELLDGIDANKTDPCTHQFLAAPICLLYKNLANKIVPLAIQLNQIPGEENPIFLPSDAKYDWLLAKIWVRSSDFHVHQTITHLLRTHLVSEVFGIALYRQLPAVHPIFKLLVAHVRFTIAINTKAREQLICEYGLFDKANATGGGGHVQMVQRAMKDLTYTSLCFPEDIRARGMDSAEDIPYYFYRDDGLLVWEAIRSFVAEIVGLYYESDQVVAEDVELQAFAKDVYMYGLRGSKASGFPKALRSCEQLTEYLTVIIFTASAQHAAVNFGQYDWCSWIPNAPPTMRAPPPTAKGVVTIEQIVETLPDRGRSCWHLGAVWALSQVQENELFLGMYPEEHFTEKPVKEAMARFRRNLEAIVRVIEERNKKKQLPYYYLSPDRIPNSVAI
Source text: a) An in vitro spectrophotometric enzyme assay system, which assesses the inhibitory properties of a test compound in a cell free system using 5-LO isolated from guinea pig neutrophils and as described by D.Aharony and R. L. Stein (J. Biol. Chem., 1986, 261(25), 11512-11519). This test provides a measure of the intrinsic inhibitory properties against soluble 5-LO in an extracellular environment.

cyclooxygenase = target: T4, cyclooxygenase (Homo sapiens, UniProt P23219); experiment: Test b) heparinised human blood challenged with A23187, TxB2 radioimmunoassay; assay type: cell-based
T4 construct: incubating a test compound with heparinised human blood; endogenous in cells; host or cells: blood cells (mainly platelets, own knowledge) in heparinised human whole blood
Experimental: b) An in vitro assay system involving incubating a test compound with heparinised human blood, prior to challenge with the calcium ionophore A23187 and then indirectly measuring the inhibitory effects on 5-LO by assaying the amount of LTB4 using the specific radioimmunoassay described by Carey and Forder (F. Carey and R. A. Forder, Brit. J. Pharmacol. 1985, 84, 34P) which involves the use of a protein-LTB4 conjugate produced using the procedure of Young et alia (Prostaglandins, 1983, 26(4),605-613). The effects of a test compound on the enzyme cyclooxygenase (which is involved in the alternative metabolic pathway for arachidonic acid and gives rise to prostaglandins, thromboxanes and related metabolites) may be measured at the same time using the specific radioimmunoassay for thromboxane B2 (TxB2) described by Carey and Forder (see above). This test provides an indication of the effects of a test compound against 5-LO and also cyclooxygenase in the presence of blood cells and proteins. It permits the selectivity of the inhibitory effect on 5-LO or cyclooxygenase to be assessed.

T4 sequence (P23219 24-599): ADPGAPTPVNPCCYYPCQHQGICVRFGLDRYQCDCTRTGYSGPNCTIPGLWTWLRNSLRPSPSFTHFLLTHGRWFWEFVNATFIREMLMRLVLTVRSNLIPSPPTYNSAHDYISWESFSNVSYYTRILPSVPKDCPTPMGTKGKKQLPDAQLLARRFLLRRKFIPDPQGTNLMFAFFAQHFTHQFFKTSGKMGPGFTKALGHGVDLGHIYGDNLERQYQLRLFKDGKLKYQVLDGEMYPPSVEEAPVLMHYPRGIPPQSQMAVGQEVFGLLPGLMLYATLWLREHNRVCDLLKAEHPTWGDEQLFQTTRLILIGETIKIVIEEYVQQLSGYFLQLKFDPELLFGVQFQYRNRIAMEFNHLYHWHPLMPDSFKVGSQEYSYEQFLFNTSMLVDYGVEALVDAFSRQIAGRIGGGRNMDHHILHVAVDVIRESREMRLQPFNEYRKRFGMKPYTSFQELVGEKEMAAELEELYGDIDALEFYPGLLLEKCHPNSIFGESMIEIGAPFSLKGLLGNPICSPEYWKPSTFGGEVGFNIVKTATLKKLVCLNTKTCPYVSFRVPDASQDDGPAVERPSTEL

SMILES	IC50 (5-LO [1]) [µM]	ED50 (5-LO [2]) [mg/kg]	IC50 (5-LO [3]) [µM]	IC50 (cyclooxygenase) [µM]
CCC(OC)(c1cccc(OCC#Cc2ccc(F)cc2)c1)c1nccs1 (centres unmarked) [2-[1-[3-(3-(4-fluorophenyl)prop-2-ynyloxy)phenyl]-1-methoxypropyl]thiazole]	0.04	10		
CCC(OC)(c1cccc(OCc2ccc3ccccc3c2)c1)c1nccs1 (centres unmarked) [2-[1-methoxy-1-[3-(naphth-2-ylmethoxy)phenyl]propyl]thiazole]		10	0.1	> 100
